# Values of other authors as cited in paper PMC2864005 (Archives of biochemistry and biophysics, 2010).
# Tested on: 3A4
# Details: after an initial burst
compound,measurement,value
CCC(C)n1ncn(-c2ccc(N3CCN(c4ccc(OCC5COC(Cn6cncn6)(c6ccc(Cl)cc6Cl)O5)cc4)CC3)cc2)c1=O (stereo not shown) [itraconazole],Rate of metabolism,0.0016 s⁻¹
